Columns and labels:
[1] = cited from earlier work
[2] = Dissolution of bilayer time release multi-B vitamin tablets, USP Apparatus 2 (paddle), HPLC; format: physicochemical
Protocol: To investigate the effect of basic yeast on the dissolution profile of folic acid from vitamin B time release tablet, five formulas (Table 2) with different amounts of yeast were tested. The amount of yeast in the modified release layer was kept constant at 30 mg and included at least 15% hydroxypropyl methylcellulose (which acts as a controlled-release polymer).
Dissolution testing was performed using a qualified Sotax dissolution tester operated as USP Apparatus 2 (paddle) at 75 rpm and at 37±0.5° C. The media used for dissolution was different for different B vitamins and was selected to minimize degradation of these vitamins for the length of the study i.e. 8 hours. Each dissolution test was performed with 6 tablets. Sample aliquots were collected at 2, 4, 6, and 8 hour and filtered through 0.45-μm Millex-HV syringe filters, and analyzed by HPLC for dissolution samples.

[3] = USP <711> in vitro dissolution of Nutrilite Vitamin B formulation NF6853; format: physicochemical
From the text: The USP requirement for instant release vitamins is for not less than 75% of label claim to be released within one hour.

SMILES	Solubility in Water (Per 100 ml water) [1] [g per 100 ml water]	further results
NC(=O)c1cccnc1 [Niacinamide (B3), niacinamide]	69.1	–
Cc1cc2nc3c(=O)[nH]c(=O)nc-3n(C[C@H](O)[C@H](O)[C@H](O)CO)c2cc1C [Riboflavin (B2), riboflavin]	0.010	release from the immediate release layer, % of the label claim ([2]; bi-layer tablet, immediate release layer): around 104%; release of riboflavin (B2) within an hour ([3]; in vitro dissolution, meets USP requirement of not less than 75% of label claim within one hour): complete release; % release (input) ([3]; instant release layer of NF6853, 1 hour, cumulative release based on input): 77.12%; % release (LC) ([3]; instant release layer of NF6853, 1 hour, cumulative release based on label claim): 104%
O=C(O)CCCC[C@@H]1SC[C@@H]2NC(=O)N[C@@H]21 [Biotin, biotin]	0.022	predicted release profile from modified release matrix ([2]; predicted from release of folic acid and thiamine and solubility order, biotin was not analyzed): intermediate release profile
Nc1nc2ncc(CNc3ccc(C(=O)N[C@@H](CCC(=O)O)C(=O)O)cc3)nc2c(=O)[nH]1 [Folic Acid, folic acid]	0.016	–
Cc1ncc(CO)c(CO)c1O [Pyridoxine (B6), pyridoxine]	30.8	–
